{"source": "paper PMC5913986", "about": "“Repurposing and Reformulation of the Antiparasitic Agent Flubendazole for Treatment of Cryptococcal Meningoencephalitis, a Neglected Fungal Disease” (Antimicrobial Agents and Chemotherapy, 2018)", "key": {"[1]": {"test": "Pharmacokinetics of oral flubendazole in rabbits", "experimental": "PK-PD relationships in the rabbit were estimated in two independently conducted experiments including 6 rabbits in each. Rabbits were placed under general anesthesia for removal of CSF via intracisternal tapping at 48 h intervals. […] Treatment was initiated 48 h postinoculation and continued for 10 days, after which time all rabbits were sacrificed. Thus, the total duration of the experiment was 288 h.\nFlubendazole concentrations in all matrices were measured using validated ultrahigh-performance liquid chromatography-tandem mass spectrometry (LC-MS/MS) implemented on an Agilent 6420 triple quad mass spectrometer and an Agilent 1290 infinity LC system (Agilent Technologies UK Ltd., Cheshire, UK). Flubendazole was extracted by protein precipitation by adding 300 μl of a 50:50 mix of acetonitrile and methanol that contained the internal standard [6,7-dimethyl-2,3-di(2-pyridyl) quinoxaline; Sigma-Aldrich, Dorset, UK] at a final concentration of 1 mg/liter to 30 μl of each matrix."}, "Cryptococcus neoformans": {"system": "Cryptococcus neoformans", "test": "Pharmacodynamics of oral flubendazole nanoformulation in murine model of cryptococcal meningitis", "type": "in vivo", "conditions": "mice", "procedure": "A previously described ([8]) and well-characterized murine model of cryptococcal meningitis was used to investigate the pharmacodynamics of flubendazole. All laboratory animal experiments were performed under UK Home Office project license PPL40/3630 and were approved by the University of Liverpool's Animal Welfare Ethics Review Board. Male CD1 mice were purchased from Charles River and were 20 to 30 g at the time of experimentation. An inoculum of 3 × 10^8 CFU in 0.25 ml was used for each mouse. Groups of mice (n = 3) were serially sacrificed throughout the experimental period. The brains were removed and homogenized. Serial 10-fold dilutions were plated to YPD agar supplemented with chloramphenicol to enumerate the total fungal burden. Plates were incubated in air at 30°C for at least 48 h.\nThe pharmacodynamics of oral flubendazole was estimated over the course of three separate independently conducted experiments. Groups of 3 mice were sacrificed at 2, 24, 48, 96, 144, and 168 h postinoculation. Dose finding studies were performed using flubendazole at 2, 4, 6, 8, and 12 mg/kg q24h orally. The upper dosage was limited by the volume restrictions for mice imposed by Home Office project license PPL40/3630. A fourth experiment compared 12 mg/kg q24 with 6 mg/kg q12h to examine whether more fractionated regimens provided any additional antifungal effect.\n(§1) The pharmacokinetic and pharmacodynamic data sets from mice were modeled using the program Pmetrics ([33]) and the following five inhomogeneous differential equations: (1) XP(1)=B(1)−Ka×X(1) (2) XP(2)=Ka×X(1)−(SCL/V)×X(2)−Kcp×X(2)+Kpc×X(3)−Kcb×X(2)+Kbc×X(4) (3) XP(3)=Kcp×X(2)−Kpc×X(3) (4) XP(4)=[…] (5) XP(5) = Kgmax [1−((X(4)/V)^Hg/C50g^Hg+(X(4)/V)^Hg)] × [1−(X(5)/POPMAX)]×X(5)\n(§2) The system parameters and their units are as follows: B(1) (mg) represents the bolus input of flubendazole into the gut. Ka (h^−1) is the first-order rate constant collecting the gut and the central compartment, SCL (liters/h) is the clearance of flubendazole from the central compartment, V (liters) is the volume of the central compartment, and Kcp (h^−1) and Kpc (h^−1) are the first-order intercompartmental rate constants. Kgmax (log10 CFU/g/h) is the maximal rate of cryptococcal growth. POPMAX (CFU/g) is the maximum theoretical fungal density. C50g (mg/liter) is the concentration of flubendazole that induces half-maximal effects on growth. Hg is the slope function for growth. The initial condition (CFU/g; not shown in the equations) is the fungal density immediately following inoculation and is estimated along with other parameters.\n(§3) Equations 1, 2, 3, and 4 are pharmacokinetic equations that describe the movement of drug from the gut, throughout the body, and into the brain. Equation 1 describes the movement of drug from the gut. Equation 2 describes the rate of change of flubendazole in the central compartment (plasma) with first-order clearance and movement of drug to and from both a peripheral (unmeasured) compartment and the cerebrum. Equations 3 and 4 describe the rate of change of drug in the peripheral and cerebral compartments, respectively. The pharmacodynamics of flubendazole against Cryptococcus neoformans is described by equation 5, which has terms that describe the capacity-limited growth of Cryptococcus and flubendazole-induced suppression of growth. The antifungal activity in the cerebrum is primarily related to concentrations in the cerebrum."}, "[2]": {"test": "In vitro DMPK: rat hepatic intrinsic clearance", "type": "in vitro ADME", "conditions": "hepatocytes"}, "[3]": {"parameters": "species or system mice", "conditions": "mouse, in vivo", "procedure": "The pharmacokinetics of oral flubendazole was determined with two independently conducted experiments. Treatment was initiated 24 h postinoculation. Doses of 2 to 12 mg/kg were used. Only the first dosing interval was studied. A serial-sacrifice design was used with groups of 3 mice that were sacrificed at 0.5, 1, 2, 8, and 24 h […].\nas §1, §2, §3"}, "[4]": {"system": "filarial diseases such as onchocerciasis and lymphatic filariasis", "parameters": "method as in PMID 21609260", "conditions": "given subcutaneously; cited from earlier work"}, "[5]": {"test": "In vitro DMPK: plasma protein binding", "type": "in vitro ADME"}, "[6]": {"system": "C. neoformans var. grubii (ATCC 208821; H99)", "test": "Hollow-fiber infection model of cryptococcal meningoencephalitis", "type": "cell-based, Cryptococcus neoformans", "conditions": "q24h for 8 days, intended peaks 1.25, 2.5, 10 mg/liter", "procedure": "A new hollow-fiber infection model was developed to investigate the in vitro pharmacodynamics of flubendazole against C. neoformans. The same cartridges (FiberCell Systems, Frederick, MD) and configuration as previously described for bacterial pathogens was used (see, for example, reference). The extracapillary space of each cartridge was inoculated with 40 ml of a suspension containing 6 log10 CFU/ml of C. neoformans var. grubii (ATCC 208821; H99). Yeast extract-peptone-dextrose (YPD) medium was pumped from the central compartment through the cartridge and back again using a peristaltic pump (205 U; Watson-Marlow, United Kingdom). The hollow-fiber infection model was incubated at 37°C in ambient air. The time course of fungal growth was determined by removing 1 ml from the extracapillary space of the cartridge and plating serial 10-fold dilutions to YPD agar.\nThe relationship between flubendazole exposure and its effect was explored using a range of drug exposures. […] Various doses of flubendazole were administered q24h by infusion over 1 h for 8 days to the central compartment using a programmable syringe driver (Aladdin pump; World Precision Instruments, United Kingdom). There was a 24-h delay in the initiation of flubendazole therapy postinoculation. […]"}, "[7]": {"test": "In vitro DMPK: human microsomal intrinsic clearance", "type": "in vitro ADME", "conditions": "human microsomes"}}, "data": [{"compound": "COC(=O)Nc1nc2cc(C(=O)c3ccc(F)cc3)ccc2[nH]1", "note": "[flubendazole]", "values": [{"measurement": "oral bioavailability", "setting": "[1]", "result": "orally bioavailable"}, {"measurement": "drug concentrations in CSF or cerebrum", "setting": "[1]; oral 6 or 22.5 mg/kg q24h, at time of sacrifice, limit of quantitation 0.0005 mg/liter", "result": "no quantifiable drug concentrations"}, {"measurement": "reduction in fungal burden compared with vehicle-treated controls", "setting": "Cryptococcus neoformans; 12 mg/kg of body weight/day orally (abstract)", "result": "~2", "unit": "log10CFU/g"}, {"measurement": "effect on fungal growth in the brain", "setting": "Cryptococcus neoformans; 12 mg/kg/day orally", "result": "slowed but did not prevent fungal growth in the brain"}, {"measurement": "C50g (concentration inducing half-maximal effects on growth), mean", "setting": "Cryptococcus neoformans; PK-PD model", "result": 2.04, "unit": "mg/L"}, {"measurement": "C50g (concentration inducing half-maximal effects on growth), median", "setting": "Cryptococcus neoformans; PK-PD model", "result": 1.68, "unit": "mg/L"}, {"measurement": "Hg (slope function for effect on growth), mean", "setting": "Cryptococcus neoformans; PK-PD model", "result": 10.338}, {"measurement": "Hg (slope function for effect on growth), median", "setting": "Cryptococcus neoformans; PK-PD model", "result": 5.096}, {"measurement": "antifungal effect of 6 mg/kg q12h compared with 12 mg/kg/day", "setting": "Cryptococcus neoformans; oral, single experiment, data not shown", "result": "no difference in antifungal effect"}, {"measurement": "hepatocyte CLint", "setting": "[2]", "result": 39, "unit": "µL/min/1e6 cells"}, {"measurement": "absorption after oral dosing", "setting": "[3]", "result": "rapidly absorbed"}, {"measurement": "Ka, mean", "setting": "[3]; po", "result": 11.312, "unit": "h⁻¹"}, {"measurement": "Ka, median", "setting": "[3]; po", "result": 14.895, "unit": "h⁻¹"}, {"measurement": "Kbc, mean", "setting": "[3]; po", "result": 0.056, "unit": "h⁻¹"}, {"measurement": "Kbc, median", "setting": "[3]; po", "result": 0.056, "unit": "h⁻¹"}, {"measurement": "Kcb, mean", "setting": "[3]; po", "result": 3.446, "unit": "h⁻¹"}, {"measurement": "Kcb, median", "setting": "[3]; po", "result": 0.594, "unit": "h⁻¹"}, {"measurement": "Kcp, mean", "setting": "[3]; po", "result": 15.741, "unit": "h⁻¹"}, {"measurement": "Kcp, median", "setting": "[3]; po", "result": 15.404, "unit": "h⁻¹"}, {"measurement": "Kpc, mean", "setting": "[3]; po", "result": 16.997, "unit": "h⁻¹"}, {"measurement": "Kpc, median", "setting": "[3]; po", "result": 16.915, "unit": "h⁻¹"}, {"measurement": "SCL/F (apparent clearance), mean", "setting": "[3]; po", "result": 0.039, "unit": "L/h"}, {"measurement": "SCL/F (apparent clearance), median", "setting": "[3]; po", "result": 0.026, "unit": "L/h"}, {"measurement": "Vb/F (apparent volume of brain), mean", "setting": "[3]; po", "result": 0.277, "unit": "L"}, {"measurement": "Vb/F (apparent volume of brain), median", "setting": "[3]; po", "result": 0.146, "unit": "L"}, {"measurement": "Vc/F (apparent volume of central compartment), mean", "setting": "[3]; po", "result": 0.051, "unit": "L"}, {"measurement": "Vc/F (apparent volume of central compartment), median", "setting": "[3]; po", "result": 0.069, "unit": "L"}, {"measurement": "cerebrum concentrations relative to plasma", "setting": "[3]; po", "result": "consistently higher than those observed in plasma"}, {"measurement": "ratio of AUC for serum and AUC for cerebrum", "setting": "[3]; po", "result": "1:4.44"}, {"measurement": "activity in filarial disease models", "setting": "[4]", "result": "striking activity"}, {"measurement": "fraction unbound", "setting": "[5]", "result": 0.094}, {"measurement": "antifungal activity in hollow-fiber model", "setting": "[6]", "result": "Rapid fungicidal activity"}, {"measurement": "microsomal CLint", "setting": "[7]", "result": 44, "unit": "µL/min/mg"}]}]}
